In PubChem BioAssay (NCI):
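Exposure lasted 48 hours, with cells grown in 96-well plates and compounds tested at five concentrations. TGI marks complete inhibition of growth.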

Tests used:
Test in all cases: growth of human tumour cells (NCI), 48 h
786-0 renal = tested on: 786-0 renal
A549 NSCLC = tested on: A549 NSCLC
ACHN renal = tested on: ACHN renal
BT-549 breast = tested on: BT-549 breast
CAKI-1 renal = tested on: CAKI-1 renal
CCRF-CEM leukemia = tested on: CCRF-CEM leukemia
COLO 205 colon = tested on: COLO 205 colon
DU-145 prostate = tested on: DU-145 prostate
EKVX NSCLC = tested on: EKVX NSCLC
HCC-2998 colon = tested on: HCC-2998 colon
HCT-116 colon = tested on: HCT-116 colon
HCT-15 colon = tested on: HCT-15 colon
HL-60(TB) leukemia = tested on: HL-60(TB) leukemia
HOP-62 NSCLC = tested on: HOP-62 NSCLC
HOP-92 NSCLC = tested on: HOP-92 NSCLC
HS 578T breast = tested on: HS 578T breast
HT29 colon = tested on: HT29 colon
IGROV1 ovarian = tested on: IGROV1 ovarian
K-562 leukemia = tested on: K-562 leukemia
KM12 colon = tested on: KM12 colon
LOX IMVI melanoma = tested on: LOX IMVI melanoma
M14 melanoma = tested on: M14 melanoma
MALME-3M melanoma = tested on: MALME-3M melanoma
MCF7 breast = tested on: MCF7 breast
MDA-MB-231 breast = tested on: MDA-MB-231 breast
MDA-MB-435 = tested on: MDA-MB-435
MOLT-4 leukemia = tested on: MOLT-4 leukemia
NCI-H226 lung = tested on: NCI-H226 lung
NCI-H23 lung = tested on: NCI-H23 lung
NCI-H460 lung = tested on: NCI-H460 lung
NCI-H522 lung = tested on: NCI-H522 lung
NCI/ADR-RES ovarian = tested on: NCI/ADR-RES ovarian
OVCAR-3 ovarian = tested on: OVCAR-3 ovarian
OVCAR-4 ovarian = tested on: OVCAR-4 ovarian
OVCAR-5 ovarian = tested on: OVCAR-5 ovarian
OVCAR-8 ovarian = tested on: OVCAR-8 ovarian
PC-3 prostate = tested on: PC-3 prostate
RPMI-8226 leukemia = tested on: RPMI-8226 leukemia
RXF 393 renal = tested on: RXF 393 renal
SF-268 CNS = tested on: SF-268 CNS
SF-539 CNS = tested on: SF-539 CNS
SK-MEL-2 melanoma = tested on: SK-MEL-2 melanoma
SK-MEL-28 melanoma = tested on: SK-MEL-28 melanoma
SK-MEL-5 melanoma = tested on: SK-MEL-5 melanoma
SK-OV-3 ovarian = tested on: SK-OV-3 ovarian
SN12C renal = tested on: SN12C renal
SNB-19 CNS = tested on: SNB-19 CNS
SNB-75 CNS = tested on: SNB-75 CNS
SW-620 colon = tested on: SW-620 colon
T-47D breast = tested on: T-47D breast
TK-10 renal = tested on: TK-10 renal
U251 CNS = tested on: U251 CNS
UACC-257 melanoma = tested on: UACC-257 melanoma
UACC-62 melanoma = tested on: UACC-62 melanoma
UO-31 renal = tested on: UO-31 renal
A498 renal = tested on: A498 renal
SF-295 CNS = tested on: SF-295 CNS
SR leukemia = tested on: SR leukemia

Compound `CCOC(=O)c1c(C)n(-c2ccc(C)cc2)c(=O)c2ccccc2c(=O)c2c(=O)ccc(=O)c1=2` has a TGI (786-0 renal) of over 100 µM, a TGI (A549 NSCLC) of 58.1 µM and a TGI (ACHN renal) of 31.9 µM. The TGI (BT-549 breast) was 57.9 µM, the TGI (CAKI-1 renal) was 28.1 µM and the TGI (CCRF-CEM leukemia) was over 100 µM. The TGI (COLO 205 colon) was 36.1 µM, the TGI (DU-145 prostate) was 39.3 µM and the TGI (EKVX NSCLC) was 80 µM. For the same compound, the TGI (HCC-2998 colon) was 27.7 µM, the TGI (HCT-116 colon) was 33.3 µM and the TGI (HCT-15 colon) was 35.1 µM. The TGI (HL-60(TB) leukemia) was 40.8 µM, the TGI (HOP-62 NSCLC) was 46 µM and the TGI (HOP-92 NSCLC) was 38.2 µM. The TGI (HS 578T breast) was 44.7 µM, the TGI (HT29 colon) was 38.7 µM and the TGI (IGROV1 ovarian) was over 100 µM. The TGI (K-562 leukemia) was 32.1 µM, the TGI (KM12 colon) was 30.3 µM and the TGI (LOX IMVI melanoma) was 36.4 µM. For the same compound, the TGI (M14 melanoma) was 42.9 µM, the TGI (MALME-3M melanoma) was 32.5 µM and the TGI (MCF7 breast) was 63.9 µM. It also gave a TGI (MDA-MB-231 breast) of over 100 µM, a TGI (MDA-MB-435) of 30.2 µM and a TGI (MOLT-4 leukemia) of 11.4 µM. It also gave a TGI (NCI-H226 lung) of 59.7 µM, a TGI (NCI-H23 lung) of 32 µM and a TGI (NCI-H460 lung) of 44.9 µM. The TGI (NCI-H522 lung) was 42.6 µM, the TGI (NCI/ADR-RES ovarian) was 58.4 µM and the TGI (OVCAR-3 ovarian) was 29.8 µM. For the same compound, the TGI (OVCAR-4 ovarian) was 58.5 µM, the TGI (OVCAR-5 ovarian) was 75.5 µM and the TGI (OVCAR-8 ovarian) was 33.6 µM. It also gave a TGI (PC-3 prostate) of 56.6 µM, a TGI (RPMI-8226 leukemia) of 24.9 µM and a TGI (RXF 393 renal) of 41.3 µM. It also gave a TGI (SF-268 CNS) of 54.2 µM, a TGI (SF-539 CNS) of 43.7 µM and a TGI (SK-MEL-2 melanoma) of 61 µM. It also gave a TGI (SK-MEL-28 melanoma) of 27.1 µM, a TGI (SK-MEL-5 melanoma) of 30.4 µM and a TGI (SK-OV-3 ovarian) of 73.3 µM. For the same compound, the TGI (SN12C renal) was 66.7 µM, the TGI (SNB-19 CNS) was 51.7 µM and the TGI (SNB-75 CNS) was 81.7 µM. For the same compound, the TGI (SW-620 colon) was 49.9 µM, the TGI (T-47D breast) was 72.2 µM and the TGI (TK-10 renal) was 29.4 µM. The TGI (U251 CNS) was 44.9 µM, the TGI (UACC-257 melanoma) was 51.2 µM and the TGI (UACC-62 melanoma) was 52 µM. The TGI (UO-31 renal) was over 100 µM.
`CCCCCCCCCCCCCCCCOP(=O)([O-])OCC[N+](C)(C)C1CC(C)(C)N(O)C(C)(C)C1` gave a TGI (786-0 renal) of over 100 µM, a TGI (A498 renal) of over 100 µM and a TGI (A549 NSCLC) of over 100 µM. The TGI (ACHN renal) was over 100 µM, the TGI (BT-549 breast) was over 100 µM and the TGI (CAKI-1 renal) was over 100 µM. For the same compound, the TGI (COLO 205 colon) was over 100 µM, the TGI (DU-145 prostate) was over 100 µM and the TGI (EKVX NSCLC) was over 100 µM. It also gave a TGI (HCC-2998 colon) of over 100 µM, a TGI (HCT-116 colon) of over 100 µM and a TGI (HCT-15 colon) of over 100 µM. It also gave a TGI (HOP-62 NSCLC) of over 100 µM, a TGI (HOP-92 NSCLC) of over 100 µM and a TGI (HS 578T breast) of over 100 µM. It also gave a TGI (HT29 colon) of over 100 µM, a TGI (KM12 colon) of over 100 µM and a TGI (M14 melanoma) of over 100 µM. It also gave a TGI (MALME-3M melanoma) of over 100 µM, a TGI (MCF7 breast) of over 100 µM and a TGI (MDA-MB-231 breast) of over 100 µM. The TGI (MDA-MB-435) was over 100 µM, the TGI (NCI-H226 lung) was over 100 µM and the TGI (NCI-H23 lung) was over 100 µM. It also gave a TGI (NCI-H460 lung) of over 100 µM, a TGI (NCI-H522 lung) of over 100 µM and a TGI (NCI/ADR-RES ovarian) of over 100 µM. For the same compound, the TGI (OVCAR-3 ovarian) was over 100 µM, the TGI (OVCAR-4 ovarian) was over 100 µM and the TGI (OVCAR-5 ovarian) was over 100 µM. The TGI (OVCAR-8 ovarian) was over 100 µM, the TGI (PC-3 prostate) was over 100 µM and the TGI (RXF 393 renal) was over 100 µM. The TGI (SF-268 CNS) was over 100 µM, the TGI (SF-295 CNS) was over 100 µM and the TGI (SF-539 CNS) was over 100 µM. It also gave a TGI (SK-MEL-2 melanoma) of over 100 µM, a TGI (SK-MEL-5 melanoma) of over 100 µM and a TGI (SK-OV-3 ovarian) of over 100 µM. It also gave a TGI (SNB-19 CNS) of over 100 µM, a TGI (SNB-75 CNS) of over 100 µM and a TGI (SR leukemia) of over 100 µM. It also gave a TGI (SW-620 colon) of over 100 µM, a TGI (T-47D breast) of over 100 µM and a TGI (TK-10 renal) of over 100 µM. It also gave a TGI (U251 CNS) of over 100 µM, a TGI (UACC-257 melanoma) of over 100 µM and a TGI (UACC-62 melanoma) of over 100 µM. For the same compound, the TGI (UO-31 renal) was over 100 µM.
